# Test results published in patent US10478404B2, “Materials, methods and devices for altering cell reactivity” (The Arizona Board of Regents on behalf of The University of …, priority 2014, dated 2019).
# Assays:
# [1] = test system: gel-filtered platelets (GFP); assay: Platelet activity state (PAS) assay of gel-filtered platelets under constant shear (cone-plate viscometer); type: cell-based, Human
# Procedure: (§1) Human blood was collected from healthy volunteers in citrated buffers. Platelet rich plasma (PRP) and gel-filtered platelets (GFP) were isolated as previously described (Girdhar, et al., PLOS One, 7(3):e32463 (2012)) then treated with percentages of DMSO (v/v) ranging from 0.95%-60%. Platelet activity state (PAS) assay of GFP sheared at 30 dyne/cm^2 via con-plate viscometer and light transmission aggregometry (LTA) of PRP and GFP induced by ADP and collagen were performed.
# In some experiments, varying percentages of DMSO were added to platelets, which were then subjected to defined sheer.
# [2] = test system: Platelet rich plasma (PRP); assay: Light transmission aggregometry (LTA) with chemical agonists; type: cell-based, Human
# Procedure: as §1
# (§2) Light transmission aggregometry (LTA) was performed to detect platelet desensitization using arachidonic acid, ADP, collagen, epinephrine, and ristocetin. Platelets were fixed and visualized at the varying DMSO treatments under scanning electron microscopy (SEM). […] DMSO has no effect on ristocetin-induced platelet aggregation.
# To examine whether membrane modulation impacted biochemical as well as shear-mediated platelet activation the following study was performed. Platelet rich plasma (PRP) was pre-incubated with varying concentrations of DMSO. PRP was then exposed to a variety of chemical agonists (ADP, Col, EpPi, Arac. Acid, or none (control)).
# [3] = test system: platelets; assay: Scanning electron microscopy (SEM) of fixed DMSO-treated platelets; type: cell-based, Human; settings: 5% and 10% DMSO
# Procedure: as §2
# [4] = test system: platelets; assay: Hyper-shear exposure via platelet hammer device (PAS); type: cell-based, Human; settings: 0.95% (v/v) DMSO pre-incubation; shear 100-1000 dynes/cm^2; FIG. 1B
# Procedure: To further extend the above observation, platelets were pre-incubated with DMSO, at 0.95% (v/v), and then subjected to much higher levels of shear via a platelet hammer device, i.e. shear from 100-1000 dynes/cm^2. […] These levels correlate with the levels experienced in VADs and other high shear MCS devices.
# [5] = test system: GFP; assay: Shear-mediated platelet activation with actin stabilizing/depolymerization drugs; type: cell-based, human; settings: 70 dyn shearing force; compared to control cells with 0.1% DMSO; FIG. 2B
# Procedure: Platelets were collected from human volunteers and PRP obtained as described above. Platelet-activation was determined (biochemical vs. shear mediated) was determined within the context of modulation of intracellular microfilament action, as measured by the effect on actin was determined. Actin is a globular multi-functional protein that forms microfilaments. It is found in almost all eukaryotic cells where it may be present at concentrations of over 100 μM. An actin protein's mass is roughly 42-kDa and it is the monomeric subunit of two types of filaments in cells: microfilaments, one of the three major components of the cytoskeleton, and thin filaments, part of the contractile apparatus in muscle cells. It can be present as either a free monomer called G-actin (globular) or as part of a linear polymer microfilament called F-actin (filamentous).
# Whole blood aggregation was determined in the presence of ADP in cells treated with cytochalasin B (FIG. 2A). Cystochalasin B inhibits both the rate of actin polymerization and the interaction of actin filaments in solution. Maclean-Fletcher, Cell, 20(2):329-41 (1980). The effect of actin stabilizing/depolymerization drugs (Jasplakinolide and cystochalasin B) in shear-mediated platelet activation was measured in GFP. […]
# [6] = test system: platelets; assay: Shear-induced platelet activation (PAS) with membrane modulators; type: cell-based, human
# Procedure: Platelets were obtained as previously described and the effect of […] on biochemical or shear-induced (70 dyn shearing force) platelet activation was determined. Membrane modulation was effected using hydrophobic molecules such as Docosahexaenoic acid (DHA) and Eicosapentaenoic acid (EPA), the structures of which are shown below.
# Shear-mediated platelet activation was also measured in the presence of DHA, EPA and wild salmon oil (FIG. 4B-C).
# Shear-mediated and biochemical mediated platelet activation was also measured in the presence of the amphipathic molecules, cholesterol and lecithin. Cholesterol adds firmness and integrity to the plasma membrane and prevents it from becoming overly fluid i.e., cholesterol helps the membrane maintain its fluidity. In the studies including cholesterol, cholesterol-treated cells were compared with cells treated with 0.1% DMSO.
compound,measurement,setting,value
"C[S+](C)[O-] [DMSO, dimethysulfoxide]",protection of platelets from shear-induced activation in comparison to control (PAS assay),"[1]; 5% DMSO, 5 min of 30 dyne/cm^2",up to 90%
same,DMSO percentage giving the same level of protection at longer shear exposure,[1]; 10 min of 30 dyne/cm^2,10%
same,most effective DMSO percentage in protecting platelets from activation by constant shear stress and aggregation by chemical agonists,[1]; DMSO range tested 0.95%-60%,5 % (v/v)
same,DMSO concentration with best protective effect,"[1]; shear 30-70 dynes/cm^2, FIG. 1A",1-5%
same,ristocetin-induced platelet aggregation,[2],no effect
same,collagen-induced PRP aggregation,[2]; 0.95% to 10% DMSO,limited effect
same,epinephrine-induced PRP aggregation,[2]; 0.95% to 10% DMSO,limited effect
same,arachidonic acid-induced aggregation,[2]; 5% DMSO,inhibition
same,maximal aggregation (LTA),[2]; 5% DMSO-pretreated platelets,lower maximal aggregation
same,platelet aggregation rate (LTA),[2]; 5% DMSO-pretreated platelets,slower platelet aggregation rate
same,ADP-induced aggregation,[2]; 10% DMSO,inhibition
same,agonist-mediated platelet activation,"[2]; PRP pre-incubated with varying DMSO, ADP, Col, Epi, Arac. Acid, inhibitory peak at higher DMSO concentrations than for shear, FIG. 1C",reduction of agonist-mediated activation
same,filopodia (SEM of platelets),[3],significant reduction
same,tolerance of hyper shear,[4],able to tolerate much higher levels of sheer
C/C1=C\[C@H](C)C[C@H](C)OC(=O)C[C@H](c2ccc(O)cc2)NC(=O)[C@@H](Cc2c(Br)[nH]c3ccccc23)N(C)C(=O)[C@H](C)NC(=O)[C@@H](C)C1 [Jasplakinolide],shear-mediated platelet activation over time,[5],less activation over time
CC(C)CCC[C@@H](C)[C@H]1CC[C@H]2[C@@H]3CC=C4C[C@@H](O)CC[C@]4(C)[C@H]3CC[C@]12C [cholesterol],shear-induced platelet activation,"[6]; 20 μM and 200 μM cholesterol, 30 dyn and 70 dyn, compared with 0.1% DMSO, FIG. 4D-E",reduces shear-induced platelet activation
lecithin,platelet sensitivity to shear stress,[6]; Example 4 data,increase platelet sensitivity to shear stress
same,shear-induced platelet activation as measured by PAS,"[6]; lecithin 25 ug/ml, 30 dyn, GFP, compared to controls, FIG. 4G",increases
